Read-outs that look alike come from different tables or passages of the source.
Biological target: human TLR4 (Homo sapiens, UniProt O00206+Q9Y6Y9)
Assay: Human TLR4 activating effect (HEK-Blue Human TLR4 Cells, SEAP reporter)
Assay type: cell-based
Details: 24 hours, SEAP Protein concentration
Experimental: The human TLR4 activating effect was studied using the compounds described in Examples 1 to 17 and monophosphoryl lipid A as Comparative Example A.
Triethanolamine was dissolved at 0.5% (v/v) in injectable distilled water to prepare an aqueous triethanolamine solution. 1 mg of each test drug was dissolved in 0.98 mL of the aqueous triethanolamine solution, and pH of the solution was then adjusted to 7.2 to 7.4 by the addition of 20 μL of 1 M HCl to prepare a 1 mg/mL solution. A dilution series of the test drug was prepared using a medium [DMEM (Nacalai Tesque, Inc.), 10% FBS (Sigma-Aldrich Co. LLC), 50 U/mL penicillin-50 μg/mL streptomycin (Thermo Fisher Scientific Inc.), 1×HEK-Blue Selection (InvivoGen), and 100 μg/mL Normocin (InvivoGen)]. 2×10^5 cells/mL HEK-Blue™ Human TLR4 Cells (InvivoGen) were inoculated to each well of a 96-well microplate for tissue culture (Iwaki), then treated with the test drug, and cultured at 37° C. for 24 hours under 5% CO2. The cells thus cultured were centrifuged at 400×g at 4° C. for 3 minutes. Recombinant SEAP Protein (InvivoGen) was used for a calibration curve. After addition of 180 μL of QUANTI-Blue (InvivoGen) to each well of 96 Well TC-Treated Microplates (Corning, Inc.), 20 μL each of the cell culture supernatant and a standard diluting solution was added to each well, and the plate was left standing at 37° C. for 4 hours. After reaction, absorbance (wavelength: 655 nm) was measured using a microplate reader (PerkinElmer, Inc., EnSpire), and a SEAP Protein concentration was calculated from the calibration curve and used as an index for TLR4 agonist activity. A drug concentration that induced reaction corresponding to 50% of the maximum reaction was calculated as EC50 (ng/mL) from a linear expression using two drug concentrations between which the drug concentration that induced reaction corresponding to 50% of the maximum reaction in each experiment was positioned, and measured values thereof.

[1] = read-out: EC50 (ng/ml) (converted)

human TLR4, sequence (O00206 24-839): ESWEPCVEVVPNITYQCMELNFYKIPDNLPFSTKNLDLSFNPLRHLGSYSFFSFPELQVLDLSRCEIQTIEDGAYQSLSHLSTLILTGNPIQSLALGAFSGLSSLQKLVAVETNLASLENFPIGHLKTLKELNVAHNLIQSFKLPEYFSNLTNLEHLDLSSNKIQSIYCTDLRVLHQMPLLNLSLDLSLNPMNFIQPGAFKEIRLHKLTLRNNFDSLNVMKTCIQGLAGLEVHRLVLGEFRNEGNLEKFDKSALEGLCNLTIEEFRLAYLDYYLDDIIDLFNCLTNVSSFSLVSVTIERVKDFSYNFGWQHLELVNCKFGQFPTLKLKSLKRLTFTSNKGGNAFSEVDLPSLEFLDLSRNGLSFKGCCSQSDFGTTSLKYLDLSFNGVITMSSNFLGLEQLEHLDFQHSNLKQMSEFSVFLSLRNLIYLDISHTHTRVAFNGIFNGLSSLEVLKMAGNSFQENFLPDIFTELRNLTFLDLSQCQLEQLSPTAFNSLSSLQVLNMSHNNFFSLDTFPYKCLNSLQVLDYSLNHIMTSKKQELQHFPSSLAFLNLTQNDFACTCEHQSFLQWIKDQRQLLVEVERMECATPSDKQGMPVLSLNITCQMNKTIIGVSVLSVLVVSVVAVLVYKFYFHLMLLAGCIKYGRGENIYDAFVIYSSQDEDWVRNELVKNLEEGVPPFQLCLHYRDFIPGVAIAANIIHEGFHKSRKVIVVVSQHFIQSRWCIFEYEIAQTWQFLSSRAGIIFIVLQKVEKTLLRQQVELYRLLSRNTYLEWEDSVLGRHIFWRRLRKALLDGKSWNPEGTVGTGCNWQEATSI
human TLR4, sequence (Q9Y6Y9 17-160 limits assumed): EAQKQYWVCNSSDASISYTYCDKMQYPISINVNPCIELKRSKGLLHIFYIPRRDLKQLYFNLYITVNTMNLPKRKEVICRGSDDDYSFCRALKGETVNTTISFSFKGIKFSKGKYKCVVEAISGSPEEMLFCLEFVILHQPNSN

EC50 [1] | Molecule | EC50
0.288 nM | CCCCCCCCCCC[C@H](CC(=O)N[C@H]1[C@H](OC[C@H](NC(=O)C[C@@H](CCCCCCCCCCC)OC(=O)CCCCCCCCC)C(=O)O)O[C@H](CO[C@@H]2O[C@H](COP(=O)(O)O)[C@@H](O)[C@H](O)[C@H]2NC(C)=O)[C@@H](OP(=O)(O)O)[C@@H]1OC(=O)C[C@@H](CCCCCCCCCCC)OC(=O)CCCCCCCCC)OC(=O)CCCCCCCCC [Example 9(9e), Ammonium (2S)-3-({6-O-[2-acetamido-2-deoxy-6-O-(hydroxyphosphinato)-β-D-glucopyranosyl]-3-O-[(3R)-3-(decanoyloxy)tetradecanoyl]-2-{[(3R)-3-(decanoyloxy)tetradecanoyl]amino}-2-deoxy-4-O-phosphono-β-D-glucopyranosyl}oxy)-2-{[(3R)-3-(decanoyloxy)tetradecanoyl]amino}propanoate] | 
0.396 nM | CCCCCCCCCCC[C@H](CC(=O)N[C@H]1[C@H](OC[C@H](NC(=O)C[C@@H](CCCCCCCCCCC)OC(=O)CCCCCCCCC)C(=O)O)O[C@H](CO[C@@H]2O[C@H](CO)[C@@H](O)[C@H](O)[C@H]2NC(C)=O)[C@@H](OP(=O)(O)O)[C@@H]1OC(=O)C[C@@H](CCCCCCCCCCC)OC(=O)CCCCCCCCC)OC(=O)CCCCCCCCC [Example 7(7c), Ammonium (2S)-3-{[6-O-(2-acetamido-2-deoxy-β-D-glucopyranosyl)-3-O-[(3R)-3-(decanoyloxy)tetradecanoyl]-2-{[(3R)-3-(decanoyloxy)tetradecanoyl]amino}-2-deoxy-4-O-phosphono-β-D-glucopyranosyl]oxy}-2-{[(3R)-3-(decanoyloxy)tetradecanoyl]amino}propanoate] | 
1.61 nM | CCCCCCCCCCC[C@H](CC(=O)NC1C(CC[C@H](NC(=O)C[C@@H](CCCCCCCCCCC)OC(=O)CCCCCCCCC)C(=O)O)OC(CO)C(OP(=O)(O)O)C1OC(=O)C[C@@H](CCCCCCCCCCC)OC(=O)CCCCCCCCC)OC(=O)CCCCCCCCC (stereo partly drawn) [Example 13(130), Ammonium 5,9-anhydro-7-O-[(3R)-3-(decanoyloxy)tetradecanoyl]-2,6-bis{[(3R)-3-(decanoyloxy)tetradecanoyl]amino}-2,3,4,6-tetradeoxy-8-O-phosphono-D-erythro-L-galacto-decanoate] | 
 | monophosphoryl lipid A [Comparative Example A, reference compound] | >10 ng/mL
0.969 nM | CCCCCCCCCCC[C@H](CC(=O)NC1C(CC[C@H](NC(=O)C[C@@H](CCCCCCCCCCC)OCCCCCCCCCC)C(=O)O)OC(CO)C(OP(=O)(O)O)C1OC(=O)C[C@@H](CCCCCCCCCCC)OCCCCCCCCCC)OCCCCCCCCCC (stereo partly drawn) [Example 17(17h), Ammonium 5,9-anhydro-7-O-[(3R)-3-(decyloxy)tetradecanoyl]-2,6-bis{[(3R)-3-(decyloxy)tetradecanoyl]amino}-2,3,4,6-tetradeoxy-8-O-phosphono-D-erythro-L-galacto-decanoate] | 
0.0661 nM | CCCCCCCCCCC[C@H](CC(=O)NC1C(OC[C@H](NC(=O)C[C@@H](CCCCCCCCCCC)OC(=O)CCCCCCCCC)C(=O)O)OC(COC2OC(C(=O)O)C(O)C(O)C2O)C(OP(=O)(O)O)C1OC(=O)C[C@@H](CCCCCCCCCCC)OC(=O)CCCCCCCCC)OC(=O)CCCCCCCCC (stereo partly drawn) [Example 6(6b), Ammonium (2S)-2-{[(3R)-3-(decanoyloxy)tetradecanoyl]amino}-3-({3-O-[(3R)-3-(decanoyloxy)tetradecanoyl]-2-{[(3R)-3-(decanoyloxy)tetradecanoyl]amino}-2-deoxy-6-β-D-glucopyranuronosyl-4-O-phosphono-β-D-glucopyranosyl}oxy)propanoate] | 
0.612 nM | CCCCCCCCCCC[C@H](CC(=O)N[C@@H](CO[C@@H]1O[C@H](CO)[C@@H](OP(=O)(O)O)[C@H](OC(=O)C[C@@H](CCCCCCCCCCC)OC(=O)CCCCCCCCC)[C@H]1NC(=O)C[C@@H](CCCCCCCCCCC)OC(=O)CCCCCCCCC)CC(=O)O)OC(=O)CCCCCCCCC [Example 1(1k), Bisammonium (3R)-3-{[(3R)-3-(decanoyloxy)tetradecanoyl]amino}-4-({3-O-[(3R)-3-(decanoyloxy)tetradecanoyl]-2-{[(3R)-3-(decanoyloxy)tetradecanoyl]amino}-2-deoxy-4-O-phosphono-β-D-glucopyranosyl}oxy)butanoate] | 

Molecule | EC50 [1] | EC50
CCCCCCCCCCC[C@H](CC(=O)NC1C(OC[C@H](NC(=O)C[C@@H](CCCCCCCCCCC)OC(=O)CCCCCCCCC)C(=O)O)OC(COC2(C(=O)O)CC(OC3(C(=O)O)CC(O)C(O)C([C@H](O)CO)O3)C(O)C([C@H](O)CO)O2)C(OP(=O)(O)O)C1OC(=O)C[C@@H](CCCCCCCCCCC)OC(=O)CCCCCCCCC)OC(=O)CCCCCCCCC (stereo partly drawn) [Example 5(5d), Ammonium (2S)-2-{[(3R)-3-(decanoyloxy)tetradecanoyl]amino}-3-{[3-deoxy-α-D-manno-oct-2-ulopyranonosyl-(2-+4)-3-deoxy-α-D-manno-oct-2-ulopyranonosyl-(2-+6)-3-O-[(3R)-3-(decanoyloxy)tetradecanoyl]-2-{[(3R)-3-(decanoyloxy)tetradecanoyl]amino}-2-deoxy-4-O-phosphono-β-D-glucopyranosyl]oxy}propanoate] | 0.187 nM | 
CCCCCCCCCCC[C@H](CC(=O)NC1C(OC[C@@H](CC(=O)O)NC(=O)C[C@@H](CCCCCCCCCCC)OC(=O)CCCCCCCCC)OC(COC2(C(=O)O)CC(OC3(C(=O)O)CC(O)C(O)C([C@H](O)CO)O3)C(O)C([C@H](O)CO)O2)C(OP(=O)(O)O)C1OC(=O)C[C@@H](CCCCCCCCCCC)OC(=O)CCCCCCCCC)OC(=O)CCCCCCCCC (stereo partly drawn) [Example 3(3d), Ammonium (3R)-3-{[(3R)-3-(decanoyloxy)tetradecanoyl]amino}-4-{[3-deoxy-α-D-manno-oct-2-ulopyranonosyl-(2-+4)-3-deoxy-α-D-manno-oct-2-ulopyranonosyl-(2-+6)-3-O-[(3R)-3-(decanoyloxy)tetradecanoyl]-2-{[(3R)-3-(decanoyloxy)tetradecanoyl]amino}-2-deoxy-4-O-phosphono-β-D-glucopyranosyl]oxy}butanoate] | 0.422 nM | 
CCCCCCCCCCC[C@H](CC(=O)NC1C(CC[C@H](NC(=O)C[C@@H](CCCCCCCCCCC)OC(=O)CCCCCCCCC)C(=O)O)OC(COC2(C(=O)O)CC(O)C(O)C([C@H](O)CO)O2)C(OP(=O)(O)O)C1OC(=O)C[C@@H](CCCCCCCCCCC)OC(=O)CCCCCCCCC)OC(=O)CCCCCCCCC (stereo partly drawn) [Example 14(14d), Ammonium 5,9-anhydro-7-O-[(3R)-3-(decanoyloxy)tetradecanoyl]-2,6-bis{[(3R)-3-(decanoyloxy)tetradecanoyl]amino}-2,3,4,6-tetradeoxy-10-O-(3-deoxy-α-D-manno-oct-2-ulopyranonosyl)-8-O-phosphono-D-erythro-L-galacto-decanoate] | 0.188 nM | 
CCCCCCCCCCC[C@H](CC(=O)NC1C(CC[C@@H](CC(=O)O)NC(=O)C[C@@H](CCCCCCCCCCC)OC(=O)CCCCCCCCC)OC(COC2(C(=O)O)CC(OC3(C(=O)O)CC(O)C(O)C([C@H](O)CO)O3)C(O)C([C@H](O)CO)O2)C(OP(=O)(O)O)C1OC(=O)C[C@@H](CCCCCCCCCCC)OC(=O)CCCCCCCCC)OC(=O)CCCCCCCCC (stereo partly drawn) [Example 12(12d), Ammonium 3-deoxy-α-D-manno-oct-2-ulopyranonosyl-(2-+4)-3-deoxy-α-D-manno-oct-2-ulopyranonosyl-(2-+11)-6,10-anhydro-8-O-[(3R)-3-(decanoyloxy)tetradecanoyl]-3,7-bis{[(3R)-3-(decanoyloxy)tetradecanoyl]amino}-2,3,4,5,7-pentadeoxy-9-O-phosphono-D-erythro-L-galacto-undecanoate] | 0.67 nM | 
CCCCCCCCCCC[C@H](CC(=O)NC1C(CC[C@H](NC(=O)C[C@@H](CCCCCCCCCCC)OC(=O)CCCCCCCCC)C(=O)O)OC(COC2(C(=O)O)CC(OC3(C(=O)O)CC(O)C(O)C([C@H](O)CO)O3)C(O)C([C@H](O)CO)O2)C(OP(=O)(O)O)C1OC(=O)C[C@@H](CCCCCCCCCCC)OC(=O)CCCCCCCCC)OC(=O)CCCCCCCCC (stereo partly drawn) [Example 15(15d), Ammonium 3-deoxy-α-D-manno-oct-2-ulopyranonosyl-(2-+4)-3-deoxy-α-D-manno-oct-2-ulopyranonosyl-(2-+10)-5,9-anhydro-7-O-[(3R)-3-(decanoyloxy)tetradecanoyl]-2,6-bis{[(3R)-3-(decanoyloxy)tetradecanoyl]amino}-2,3,4,6-tetradeoxy-8-O-phosphono-D-erythro-L-galacto-decanoate] | 0.4 nM | 
